# Results reported in PMC2800825 (Biochemistry, 2009).
# Numbering of substitutions follows the chain as printed. Where “and” joins values, the source holds several entries; their conditions need not be identical. Equal values may be shown once. Read-outs that look alike come from different tables or passages of the source.
# Assays:
# [1] = molecular target: T1, Thr247Ser mutant E. coli DHOD (Escherichia coli, UniProt P0A7E1, T247S); settings: pH 8.5, 25 °C
# T1 sequence (P0A7E1 1-336 T247S): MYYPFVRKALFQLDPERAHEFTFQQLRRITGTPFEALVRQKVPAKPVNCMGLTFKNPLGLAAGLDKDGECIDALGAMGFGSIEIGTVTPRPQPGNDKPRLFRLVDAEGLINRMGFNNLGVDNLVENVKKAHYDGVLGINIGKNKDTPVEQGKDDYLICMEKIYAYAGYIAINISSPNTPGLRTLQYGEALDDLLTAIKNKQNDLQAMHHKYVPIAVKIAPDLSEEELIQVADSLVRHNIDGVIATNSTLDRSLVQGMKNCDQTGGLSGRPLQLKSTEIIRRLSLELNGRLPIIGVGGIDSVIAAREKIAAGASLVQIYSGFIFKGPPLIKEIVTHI
# [2] = molecular target: T2, Thr247Ala mutant E. coli DHOD (Escherichia coli, UniProt P0A7E1, T247A); settings: pH 8.5, 25 °C
# T2 sequence (P0A7E1 whole entry T247A): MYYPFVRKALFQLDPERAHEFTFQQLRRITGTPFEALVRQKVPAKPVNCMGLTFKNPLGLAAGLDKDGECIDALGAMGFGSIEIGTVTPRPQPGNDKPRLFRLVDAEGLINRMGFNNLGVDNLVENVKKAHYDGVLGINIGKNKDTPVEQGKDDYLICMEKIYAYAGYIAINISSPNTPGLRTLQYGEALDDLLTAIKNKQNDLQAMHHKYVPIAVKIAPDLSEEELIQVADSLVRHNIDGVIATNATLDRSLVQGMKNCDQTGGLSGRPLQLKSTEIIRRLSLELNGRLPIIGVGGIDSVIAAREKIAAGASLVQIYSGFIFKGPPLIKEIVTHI
# [3] = molecular target: T3, Asn177Ala mutant E. coli DHOD (Escherichia coli, UniProt P0A7E1, N177A); settings: pH 8.5, 25 °C
# T3 sequence (P0A7E1 whole entry N177A): as the sequence (P0A7E1 whole entry T247A) above, with N177A, A247T counted along it
# [4] = molecular target: T4, Asn172Ala mutant E. coli DHOD (Escherichia coli, UniProt P0A7E1, N172A); settings: pH 8.5, 25 °C
# T4 sequence (P0A7E1 1-336 N172A): T1 sequence (P0A7E1 1-336 T247S) with N172A, S247T
# [5] = molecular target: T5, Asn246Ala mutant E. coli DHOD (Escherichia coli, UniProt P0A7E1, N246A); settings: pH 8.5, 25 °C
# T5 sequence (P0A7E1 whole entry N246A): as the sequence (P0A7E1 whole entry T247A) above, with N246A, A247T counted along it
# [6] = molecular target: T6, Asn172Ala/Asn246Ala mutant E. coli DHOD (Escherichia coli, UniProt P0A7E1, N172A/N246A); settings: pH 8.5, 25 °C
# T6 sequence (P0A7E1 1-336 N172A/N246A): T1 sequence (P0A7E1 1-336 T247S) with N172A, N246A, S247T
# [7] = molecular target: T7, Asn111Ala mutant E. coli DHOD (Escherichia coli, UniProt P0A7E1, N111A); settings: pH 8.5, 25 °C
# T7 sequence (P0A7E1 whole entry N111A): as the sequence (P0A7E1 whole entry T247A) above, with N111A, A247T counted along it
# [8] = molecular target: T8, Asn111Asp mutant E. coli DHOD (Escherichia coli, UniProt P0A7E1, N111D); settings: pH 8.5, 25 °C
# T8 sequence (P0A7E1 whole entry N111D): as the sequence (P0A7E1 whole entry T247A) above, with N111D, A247T counted along it
# wild-type E. coli DHOD [9] = molecular target: T9, wild-type E. coli DHOD (Escherichia coli, UniProt P0A7E1); experiment: biochemical
# T9 sequence (P0A7E1 1-336): T1 sequence (P0A7E1 1-336 T247S) with S247T
# [10] = molecular target: T1, Thr247Ser mutant E. coli DHOD; experiment: biochemical
# [11] = molecular target: T2, Thr247Ala mutant E. coli DHOD; experiment: biochemical
# [12] = molecular target: T3, Asn177Ala mutant E. coli DHOD; experiment: biochemical
# [13] = molecular target: T4, Asn172Ala mutant E. coli DHOD; experiment: biochemical
# [14] = molecular target: T5, Asn246Ala mutant E. coli DHOD; experiment: biochemical; settings: Kd of OA, Asn246Ala oxidized enzyme, pH 8.5, 25 °C
# [15] = molecular target: T6, Asn172Ala/Asn246Ala mutant E. coli DHOD; experiment: biochemical
# [16] = molecular target: T7, Asn111Ala mutant E. coli DHOD; experiment: biochemical
# [17] = molecular target: T8, Asn111Asp mutant E. coli DHOD; experiment: biochemical
# [18] = molecular target: T2, Thr247Ala mutant E. coli DHOD; settings: protio-DHO vs 5,5,6-^2H3 DHO, pH 8.5, 4 °C
# [19] = molecular target: T5, Asn246Ala mutant E. coli DHOD; settings: protio-DHO vs 5,5,6-^2H3 DHO, pH 8.5, 4 °C
# [20] = molecular target: T7, Asn111Ala mutant E. coli DHOD; settings: protio-DHO vs 5,5,6-^2H3 DHO, pH 8.5, 4 °C
# [21] = molecular target: T8, Asn111Asp mutant E. coli DHOD; settings: protio-DHO vs 5,5,6-^2H3 DHO, pH 8.5, 4 °C
# [22] = molecular target: T1, Thr247Ser mutant E. coli DHOD; experiment: Reductive half-reaction with DHO, anaerobic stopped-flow; assay type: biochemical
# [23] = molecular target: T2, Thr247Ala mutant E. coli DHOD; experiment: as above; assay type: biochemical
# [24] = molecular target: T3, Asn177Ala mutant E. coli DHOD; experiment: as above; assay type: biochemical
# [25] = molecular target: T4, Asn172Ala mutant E. coli DHOD; experiment: as above; assay type: biochemical
# [26] = molecular target: T5, Asn246Ala mutant E. coli DHOD; experiment: as above; assay type: biochemical
# [27] = molecular target: T6, Asn172Ala/Asn246Ala mutant E. coli DHOD; assay type: biochemical; settings: pH 8.5, footnote b printed, text says examined at 25°
# [28] = molecular target: T7, Asn111Ala mutant E. coli DHOD; experiment: Reductive half-reaction with DHO, anaerobic stopped-flow; assay type: biochemical
# [29] = molecular target: T8, Asn111Asp mutant E. coli DHOD; experiment: as above; assay type: biochemical
# wild-type E. coli DHOD [30] = molecular target: T9, wild-type E. coli DHOD; settings: cited from earlier work
compound,measurement,setting,value
"O=C(O)c1cc(=O)[nH]c(=O)[nH]1 [OA, orotate]",Kd(mutant)/Kd(Wild-Type) for OA,[1],1.1
same,Kd(mutant)/Kd(Wild-Type) for OA,[2],12
same,Kd(mutant)/Kd(Wild-Type) for OA,[3],8
same,Kd(mutant)/Kd(Wild-Type) for OA,[4],65
same,Kd(mutant)/Kd(Wild-Type) for OA,[5],150 and 152
same,Kd(mutant)/Kd(Wild-Type) for OA,[6],~ 14700
same,Kd(mutant)/Kd(Wild-Type) for OA,[7],14
same,Kd(mutant)/Kd(Wild-Type) for OA,[8],≫ 22000
same,Kd,wild-type E. coli DHOD [9],3.4 ± 0.8 µM
same,Kd,[10],3.8 ± 0.5 µM
same,Kd,[11],39.3 ± 1.6 µM
same,Kd,[12],27.5 ± 1.5 µM
same,Kd,[13],220 ± 9 µM
same,Kd,[14],520 µM and 518 µM
same,Kd,[15],~50000 µM
same,Kd,[16],47.2 ± 0.2 µM
same,Kd,[17],> 75000 µM
"[2H]C1([2H])C(=O)NC(=O)NC1([2H])C(=O)O (stereo not drawn) [5,5,6-^2H3 DHO]",KIE ^D(kred/Kd),[18],6.3 ± 0.4
same,KIE ^D(kred/Kd),[19],6.3 ± 0.4
same,KIE ^D(kred/Kd),[20],5.9 ± 0.3
same,KIE ^D(kred/Kd),[21],5.3 ± 0.2
NC(CO)(CO)CO.O=C(O)c1cc(=O)[nH]c(=O)[nH]1 [OA-Tris salt],solubility in water,,at least 400 mM
"O=C1C[C@@H](C(=O)O)NC(=O)N1 [DHO, dihydroorotate]",Kd,[22],45 ± 5 µM
same,kred (reduction rate constant),"[22]; Thr247Ser, pH 8.5, 4 °C",58.8 ± 1.1 s⁻¹
same,"observed rate constant of the final phase, independent of DHO concentration","[22]; Thr247Ser, pH 8.5, 4 °C",~ 0.02 s^−1
same,Kd,[23],198 ± 16 µM
same,fold decrease in reduction rate constant vs wild-type,[23]; Thr247Ala,~ 8 fold
same,fold increase in Kd of DHO vs wild-type,[23]; Thr247Ala,~ 10 fold
same,kred (reduction rate constant),"[23]; Thr247Ala, pH 8.5, 4 °C",5.52 ± 0.09 s⁻¹
same,Kd,[24],22 ± 2 µM
same,fold decrease in reduction rate constant vs wild-type,[24]; Asn177Ala,~ 800 fold
same,kred (reduction rate constant),"[24]; Asn177Ala, pH 8.5, 4 °C",0.0586 ± 0.0004 s⁻¹
same,Kd,[25],278 ± 9 µM
same,fold increase in Kd of DHO vs wild-type,[25]; Asn172Ala,~ 14 fold
same,kred (reduction rate constant),"[25]; Asn172Ala, pH 8.5, 4 °C",0.00437 ± 0.0002 s⁻¹ and 0.00437 ± 0.00002 s⁻¹
same,Kd,[26],47000 µM
same,fold decrease in reduction rate constant vs wild-type,[26]; Asn246Ala,~ 570 fold
same,fold increase in apparent Kd for DHO vs wild-type,[26]; Asn246Ala,"~ 2,000 fold"
same,kred (reduction rate constant),"[26]; Asn246Ala, pH 8.5, 4 °C",0.081 ± 0.002 s⁻¹
same,kred (reduction rate constant),[27],~0.002 ^b s^−1
same,Kd,[28],1040 µM
same,fold decrease in kred vs wild-type,[28]; Asn111Ala,~ 4600 fold
same,fold increase in Kd of DHO vs wild-type,[28]; Asn111Ala,~ 50 fold
same,kred (reduction rate constant),"[28]; Asn111Ala, pH 8.5, 4 °C",0.0100 ± 0.0001 s⁻¹
same,fold slower reduction rate constant than wild-type,[29],~ 450 fold
same,kred (reduction rate constant),"[29]; pH 8.5, 4 °C, estimated",~0.1 s⁻¹
same,kred (reduction rate constant),"wild-type E. coli DHOD [30]; pH 8.5, 4 °C",46 s⁻¹
same,Kd,"wild-type E. coli DHOD [30]; read-out: Apparent Kd,DHO, pH 8.5, 4 °C",20 µM
